Data: patent US20250090516A1, “DRUG FOR TREATING AF[…] NOVEL CORONAVIRUS INFECTION” (THE JIKEI UNIVERSITY, priority 2022, published 2025)

What was measured:
Format in all cases: in vivo, C57BL/6 mice
[1] = test system: S1 mice (COVID-19 sequela model animals); test: 10% weight-loaded forced swimming test (fatigue behavioral test) after donepezil; settings: donepezil 4.0 mg/kg/day via drinking water; 6th day after nasal S1/Adv; without donepezil, S1 mice significantly shorter; FIG. 11
[2] = test system: S1 mice (COVID-19 sequela model animals); test: Tail suspension test (depressive disorder-like behavior) after donepezil; settings: donepezil 4.0 mg/kg/day via drinking water; 6th day after nasal S1/Adv; 10 minutes suspension; without donepezil, S1 mice significantly increased; FIG. 12
[3] = test system: gene expression of IL-1β and IL-6 in the brains of S1 mice; test: RT-qPCR of inflammatory cytokine genes in brains of S1 mice after intracerebroventricular PNU282987; settings: PNU282987 400 nmol/mouse intracerebroventricularly on 7th day; brains collected one hour later; FIG. 14
[4] = test system: gene expression of zinc finger protein 36 (Zfp36) in the brains of S1 mice; test: RT-qPCR of Zfp36 in brains of S1 mice after PNU282987; settings: PNU282987 400 nmol/mouse intracerebroventricularly; cDNA of Example 10; FIG. 15
Protocol: Therefore, to the S1 mice and the control mice, on the 7th day after nasal administration of S1/Adv or vector/Adv, PNU282987, which is an agonist specific to the a7 nicotinic acetylcholine receptor, was administered intracerebroventricularly at a dose of 400 nmol/mouse, and the therapeutic effect on brain inflammation in the S1 mice was examined.
One hour after the intracerebroventricular administration of PNU282987, the brains excluding the olfactory bulbs were collected, and RNA was purified with the RNeasy Mini Kit (QIAGEN). The purified RNA was used as a template to synthesize cDNA with the PrimeScript RT reagent Kit (Takara-Bio Inc.). Using the synthesized cDNA, the gene expression of interleukin-1β (IL-1β) and interleukin-6 (IL-6) was analyzed by RT-qPCR. The measurement results of 18S rRNA were used for normalization.
To elucidate the molecular mechanism of the therapeutic effect of PNU282987 on brain inflammation in Example 10, the impact of S1 and […] on the gene expression level of zinc finger protein 36 (Zfp36), which is a host protein with anti-inflammatory effects, was examined. Specifically, using the synthesized cDNA in Example 10, the gene expression of Zfp36 was analyzed by RT-qPCR. The measurement results of 18S rRNA were used for normalization.

SMILES	swimming time, S1 mice vs control mice [1]	immobility time in the tail suspension test, S1 mice vs control mice [2]	increased expression level of IL-1β gene in the brain of S1 mice [3]	increased expression level of IL-6 gene in the brain of S1 mice [3]	decrease in ZFP36 gene expression in S1 mice [4]
COc1cc2c(cc1OC)C(=O)C(CC1CCN(Cc3ccccc3)CC1)C2.Cl (centres unmarked) [donepezil, 2-[(1-benzyl-4-piperidyl)methyl]-5,6-dimethoxyindan-1-one hydrochloride]	no difference was observed	significantly decreased			
O=C(N[C@H]1CN2CCC1CC2)c1ccc(Cl)cc1 [PNU282987]			suppressed	suppressed	improved
